Laboratory results reported in patent publication US20140199401A1, “EXTENDED RELEASE PHARMACEUTICAL COMPOSITIONS OF FESOTERODINE” (CADILA HEALTHCARE LIMITED, priority 2011, published 2014).
Counter-ions that a name gives are not always drawn.

Test: Particle size data of fesoterodine fumarate
Assay type: physicochemical
Experimental: (Particle size data of Fesoterodine fumarate: D10-47.3μ; D50-156μ; D90-293μ) • Procedure: Mixture of fesoterodine fumarate, microcrystalline cellulose, corn starch, lactose monohydrate, hypromellose, and povidone K 30 was lubricated with magnesium stearate and talc. The lubricated blend was then compressed into tablets. The tablets were finally coated with Opadry dispersion in purified water.
The formulation was prepared with the same excipients in the same quantity as used in Example 1. Only difference is in the particle size of fesoterodine fumarate used in that formulation. In this comparative example, particle size of fesoterodine fumarate is used such that D10-2.67μ; D50-34.48μ; D90-125.3μ.

[1] = fesoterodine fumarate used in Comparative Example 1
[2] = fesoterodine fumarate used in Example 1

- Particle size D10 [1]: 2.67 μ
- Particle size D50 [1]: 34.48 μ
- Particle size D90 [1]: 125.3 μ
- Particle size D10 [2]: 47.3 μ
- Particle size D50 [2]: 156 μ
- Particle size D90 [2]: 293 μ
SMILES: CC(C)C(=O)Oc1ccc(CO)cc1[C@H](CCN(C(C)C)C(C)C)c1ccccc1 [Fesoterodine fumarate, 2-[(1R)-3-(diisopropylamino)-1-phenylpropyl]-4-(hydroxymethyl)phenyl isobutyrate]
